This note sets out measurements from ChEMBL document CHEMBL4130617, “Prenylated 2-Phenoxychromones and Flavonoids from Epimedium brevicornum and Revised Structures of Epimedonins A and B” (J Nat Prod, 2018).

In assay [1] the test system is SW480. Description: Growth inhibition of human SW480 cells at 40 uM after 48 hrs by MTS assay relative to control. The assay is classed as functional. The following applies: SW480, 48 h, read-out: GI.
The subject of assay [2] is A549. The experiment in a line: Cytotoxicity against human A549 cells after 48 hrs by MTS assay. The assay is classed as functional, cell-based. The following applies: A549, 48 h. A general note: Formazan colour is commonly taken as a measure of viable cells.
In assay [3] the test system is MCF7. The experiment in a line: Growth inhibition of human MCF7 cells at 40 uM after 48 hrs by MTS assay relative to control. The assay is classed as functional. The following applies: MCF7, 48 h, read-out: GI.
Assay [4] relates to MCF7. Description: Cytotoxicity against human MCF7 cells after 48 hrs by MTS assay. The assay is classed as functional, cell-based. Conditions: MCF7, 48 h.
In assay [5] the test system is HL-60. The experiment in a line: Growth inhibition of human HL60 cells at 40 uM after 48 hrs by MTS assay relative to control. The assay is classed as functional. Conditions: HL-60, 48 h, read-out: GI.
In assay [6] the test system is SW480. Description: Cytotoxicity against human SW480 cells after 48 hrs by MTS assay. The assay is classed as functional, cell-based. Conditions: SW480, 48 h.
For assay [7], the system named is HL-60. Description: Cytotoxicity against human HL60 cells after 48 hrs by MTS assay. The assay is classed as functional, cell-based. Conditions: HL-60, 48 h.
Assay [8] concerns SMMC-7721. The experiment in a line: Cytotoxicity against human SMMC7721 cells after 48 hrs by MTS assay. The assay is classed as functional, cell-based. The following applies: SMMC-7721, 48 h.
The subject of assay [9] is A549. The experiment in a line: Growth inhibition of human A549 cells at 40 uM after 48 hrs by MTS assay relative to control. The assay is classed as functional. The following applies: A549, 48 h, read-out: GI.
For assay [10], the system named is SMMC-7721. Description: Growth inhibition of human SMMC7721 cells at 40 uM after 48 hrs by MTS assay relative to control. The assay is classed as functional. The following applies: SMMC-7721, 48 h, read-out: GI.

Structures are written as SMILES.

As a reminder, the IC50 is the concentration that inhibits the measured activity by half. Turning to `COc1cc(O)c2c(=O)cc(Oc3ccc(O)cc3)oc2c1CC=C(C)C`, the inhibition of growth at 40 µM in assay [1], in assay [3], in [5], in [9] and in assay [10] was over 50% in each case. In addition, the IC50 in [2], in assay [4], in [6], in assay [7] and in [8] was over 10 µM throughout.
Turning to `CC(C)=CCc1cc(Oc2cc(=O)c3c(O)cc(O)c(CC=C(C)C)c3o2)ccc1O`, the inhibition of growth at 40 µM in assay [1], in [3], in assay [5], in [9] and in [10] was over 50% each time. Further, the IC50 in assay [2], in assay [4], in assay [6], in assay [7] and in assay [8] was over 10 µM each time.
For the compound `CC(C)=CCc1cc(Oc2cc(=O)c3c(O)cc(O)c(CC=C(C)C)c3o2)cc(CC=C(C)C)c1O`, the inhibition of growth at 40 µM in assay [1], in assay [3], in assay [5], in assay [9] and in [10] was over 50% in each case. The IC50 in assay [2], in assay [4], in assay [6], in assay [7] and in assay [8] was over 10 µM each time.
Regarding `CC(C)=CCc1cc(-c2cc(=O)c3c(O)cc(O)c(CC=C(C)C)c3o2)cc(CC=C(C)C)c1O`, the inhibition of growth at 40 µM in [1], in assay [3], in assay [5], in assay [9] and in [10] was over 50% each time. Besides, the IC50 in assay [2] was 7.1 µM; in assay [4] it was 5.4 µM; in [6], 5.1 µM; in [7], 4.3 µM; in assay [8] it was over 10 µM.
As for `COc1cc(O)c2c(=O)cc(Oc3ccc(O)cc3)oc2c1C[C@@H](O)C(C)(C)O`, the inhibition of growth at 40 µM in assay [1], in assay [3], in [5], in assay [9] and in assay [10] was over 50% in each case. Besides, the IC50 in assay [2], in assay [4], in assay [6], in [7] and in assay [8] was over 10 µM throughout.
With `C=C(C)C(O)Cc1c(O)cc(O)c2c(=O)cc(Oc3ccc(O)cc3)oc12` (stereo not given), the inhibition of growth at 40 µM in assay [1], in assay [3], in assay [5], in [9] and in assay [10] was over 50% throughout. Besides, the concentration for half-maximal inhibition (IC50) in assay [2], in assay [4], in assay [6], in assay [7] and in [8] was over 10 µM each time.
In the case of `CC(=O)O[C@H]1C(=O)[C@@]2(C)[C@H]([C@H](OC(=O)c3ccccc3)[C@]3(O)C[C@H](OC(=O)[C@H](O)[C@@H](NC(=O)c4ccccc4)c4ccccc4)C(C)=C1C3(C)C)[C@]1(OC(C)=O)CO[C@@H]1C[C@@H]2O` [PACLITAXEL], the IC50 in assay [2], in assay [4], in [6], in [7] and in [8] was under 0.008 µM throughout.
Consider `COc1ccc(-c2oc3c(c(O)cc4oc(C(C)(C)O)cc43)c(=O)c2O[C@@H]2O[C@@H](C)[C@H](O)[C@@H](O)[C@H]2O[C@@H]2O[C@@H](C)[C@H](O)[C@@H](O)[C@H]2O)cc1`, for which the inhibition of growth at 40 µM in assay [1], in assay [3], in assay [5], in assay [9] and in [10] was over 50% in each case. Besides, the IC50 in [2], in assay [4], in assay [6], in assay [7] and in assay [8] was over 10 µM in each case.
For the compound `CC(C)=CCc1c(O)cc(O)c2c(=O)cc(Oc3ccc(O)cc3)oc12`, the inhibition of growth at 40 µM in assay [1], in [3], in assay [5], in assay [9] and in assay [10] was over 50% throughout. Besides, the 50% inhibitory concentration (IC50) in [2], in assay [4], in [6], in [7] and in assay [8] was over 10 µM in each case.
